In patent publication US10562908B2, “Ortho substituted phenylpyrazolo- and phenylpyrrolo-pyridazine derivatives having multimodal activity against pain” (priority 2016, dated 2020):
pKi: −log10 of the molar value. Like-named read-outs stand apart in the source and are kept apart here.

Experiments:
[1] = biological target: Human α2δ-1 subunit of Cav2.2 calcium channel (Homo sapiens, UniProt P54289); assay: Human α2δ-1 subunit of Cav2.2 calcium channel assay ([3H]-Gabapentin); type: binding
Summary of the method: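 α2δ-1-enriched membranes (2.5 μg) were incubated with 15 nM [3H]-gabapentin in 10 mM Hepes-KOH pH 7.4 for 60 min at 27 °C. Non-specific binding was defined with 10 μM pregabalin. Compounds were tested at five concentrations, with filtration and scintillation counting.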

human μ-opioid receptor = biological target: T1, human μ-opioid receptor (Homo sapiens, UniProt P35372); assay: Human μ-opioid receptor radioligand assay ([3H]-DAMGO); type: binding
T1 construct: expressed in transfected cells; host or cells: CHO-K1
Summary of the method: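 Transfected CHO-K1 membranes (20 μg) incubated with 1 nM [3H]-DAMGO in 50 mM Tris-HCl, 5 mM MgCl2, pH 7.4, 60 min at 27 °C; non-specific binding with 10 μM naloxone. Test compound at five concentrations; bound radioactivity counted after filtration by scintillation.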

T1 sequence (P35372 whole entry): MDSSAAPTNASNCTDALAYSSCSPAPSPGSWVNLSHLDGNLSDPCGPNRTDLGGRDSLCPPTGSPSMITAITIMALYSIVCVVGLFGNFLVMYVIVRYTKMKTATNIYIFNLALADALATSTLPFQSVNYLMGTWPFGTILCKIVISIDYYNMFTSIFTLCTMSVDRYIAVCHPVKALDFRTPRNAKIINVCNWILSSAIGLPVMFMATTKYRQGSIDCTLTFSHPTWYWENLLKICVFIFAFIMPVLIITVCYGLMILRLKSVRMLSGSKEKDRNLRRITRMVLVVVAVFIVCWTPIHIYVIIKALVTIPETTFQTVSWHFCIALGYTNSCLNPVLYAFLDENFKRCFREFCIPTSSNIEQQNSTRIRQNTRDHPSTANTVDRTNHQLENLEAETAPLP
Human α2δ-1 subunit of Cav2.2 calcium channel, sequence (P54289 25-1103): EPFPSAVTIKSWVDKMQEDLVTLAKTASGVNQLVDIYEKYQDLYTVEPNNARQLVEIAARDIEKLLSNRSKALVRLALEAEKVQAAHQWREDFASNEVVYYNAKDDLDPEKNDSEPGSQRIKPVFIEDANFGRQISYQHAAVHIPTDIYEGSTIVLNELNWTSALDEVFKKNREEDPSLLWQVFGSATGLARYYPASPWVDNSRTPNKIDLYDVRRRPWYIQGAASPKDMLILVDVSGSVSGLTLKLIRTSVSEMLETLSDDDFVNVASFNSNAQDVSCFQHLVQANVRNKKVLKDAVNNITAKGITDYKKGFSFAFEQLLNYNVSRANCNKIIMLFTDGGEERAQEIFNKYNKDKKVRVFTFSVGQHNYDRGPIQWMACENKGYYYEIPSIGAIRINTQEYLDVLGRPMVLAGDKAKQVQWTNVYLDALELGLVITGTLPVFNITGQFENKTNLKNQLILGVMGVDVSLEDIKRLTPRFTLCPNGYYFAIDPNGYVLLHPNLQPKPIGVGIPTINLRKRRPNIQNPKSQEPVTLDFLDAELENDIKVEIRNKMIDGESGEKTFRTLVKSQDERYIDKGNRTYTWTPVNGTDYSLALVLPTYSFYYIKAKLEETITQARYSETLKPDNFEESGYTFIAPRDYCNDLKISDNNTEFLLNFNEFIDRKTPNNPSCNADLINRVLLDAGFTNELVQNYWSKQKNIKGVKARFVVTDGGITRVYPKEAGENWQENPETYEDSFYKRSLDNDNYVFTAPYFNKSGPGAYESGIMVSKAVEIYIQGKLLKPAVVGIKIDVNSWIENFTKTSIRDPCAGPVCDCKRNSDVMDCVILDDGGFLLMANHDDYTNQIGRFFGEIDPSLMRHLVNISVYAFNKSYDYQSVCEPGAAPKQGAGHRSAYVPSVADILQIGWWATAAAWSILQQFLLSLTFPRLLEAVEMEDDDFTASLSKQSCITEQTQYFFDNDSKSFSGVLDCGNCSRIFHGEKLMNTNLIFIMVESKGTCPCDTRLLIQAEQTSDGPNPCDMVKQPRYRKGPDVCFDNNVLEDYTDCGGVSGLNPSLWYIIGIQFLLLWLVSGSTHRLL

Row | Structure (SMILES) | pKi ([1]; human α2δ-1 enriched membranes, 15 nM [3H]-Gabapentin, read-out: Binding α2δ-1 (Ki)) | pKi (human μ-opioid receptor; transfected CHO-K1 cell membranes, 1 nM [3H]-DAMGO, read-out: Binding μ (Ki)) | pKi [1] | pKi (human μ-opioid receptor)
1 | CNCCC(Oc1cc(O)ccc1-n1nc2c(N(C)C)nnc(C)c2c1C)c1ccccc1 (centres unmarked) [Example 98, 4-(7-(dimethylamino)-3,4-dimethyl-2H-pyrazolo[3,4-d]pyridazin-2-yl)-3-(3-(methylamino)-1-phenylpropoxy)phenol] | 5.30 to 6.30 | < 6.30 | – | –
2 | CNCC[C@H](Oc1ccccc1-n1nc2c(N(C)C)nnc(C)c2c1C)c1ccccc1 [Example 99, (S)-N,N,3,4-Tetramethyl-2-(2-(3-(methylamino)-1-phenylpropoxy)phenyl)-2H-pyrazolo[3,4-d]pyridazin-7-amine] | – | – | 5.30 to 6.30 | 6.30 to 7.00
3 | CNCC[C@@H](Oc1ccccc1-n1nc2c(N(C)C)nnc(C)c2c1C)c1ccccc1 [Example 100, (R)-N,N,3,4-tetramethyl-2-(2-(3-(methylamino)-1-phenylpropoxy)phenyl)-2H-pyrazolo[3,4-d]pyridazin-7-amine] | – | – | 5.30 to 6.30 | < 6.30
4 | CCNCC[C@@H](Oc1ccccc1-n1nc2c(N(C)C)nnc(C)c2c1C)c1ccccc1 [Example 101, (R)-2-(2-(3-(Ethylamino)-1-phenylpropoxy)phenyl)-N,N,3,4-tetramethyl-2H-pyrazolo[3,4-d]pyridazin-7-amine] | – | – | 5.30 to 6.30 | 6.30 to 7.00
5 | CCNCC[C@H](Oc1ccccc1-n1nc2c(N(C)C)nnc(C)c2c1C)c1ccccc1 [Example 102, (S)-2-(2-(3-(ethylamino)-1-phenylpropoxy)phenyl)-N,N,3,4-tetramethyl-2H-pyrazolo[3,4-d]pyridazin-7-amine] | – | – | 5.30 to 6.30 | < 6.30
6 | CNCC[C@H](Oc1ccccc1-n1nc2c(N(C)C)nnc(C)c2c1C)c1cccc(F)c1 [Example 103, (S)-2-(2-(1-(3-Fluorophenyl)-3-(methylamino)propoxy)phenyl)-N,N,3,4-tetramethyl-2H-pyrazolo[3,4-d]pyridazin-7-amine] | – | – | > 6.30 | < 6.30
7 | CNCC[C@@H](Oc1ccccc1-n1nc2c(N(C)C)nnc(C)c2c1C)c1cccc(F)c1 [Example 104, (R)-2-(2-(1-(3-fluorophenyl)-3-(methylamino)propoxy)phenyl)-N,N,3,4-tetramethyl-2H-pyrazolo[3,4-d]pyridazin-7-amine] | – | – | 5.30 to 6.30 | 6.30 to 7.00
